In patent US20160100579A1, “NEMATICIDAL N-(2-SUBSTITUTED 2-PHENYLETHYL)CARBOXAMIDES AND N-(2-SUBSTITUTED 2-PHENYLETHYL)-THIOCARBOXAMIDES” (priority 2013, published 2016):

Assays:
[1] = system: Meloidogyne incognita; assay: Meloidogyne incognita - test (MELGIN); type: in vivo; settings: 20 ppm; salad seedlings in sand; after 14 days; 100% = no galls found
Description: Meloidogyne incognita—test (MELGIN)
Solvent: 125.0 parts by weight of acetone
To produce a suitable preparation of active compound, 1 part by weight of active compound is mixed with the stated amount of solvent, and the concentrate is diluted with water to the desired concentration.
Vessels are filled with sand, a solution of the active ingredient, a suspension containing eggs and larvae of the southern root-knot nematode (Meloidogyne incognita) and salad seeds. The salad seeds germinate and the seedlings grow. Galls develop in the roots.
After 14 days the nematicidal activity is determined on the basis of the percentage of gall formation. 100% means that no galls were found; 0% means the number of galls found on the roots of the treated plants was equal to that in untreated control plants.

[2] = Measurement of log P values by HPLC on reversed phase columns (EEC directive 79/831 Annex V.A8; methods [a] pH 2.3, [b] pH 2.7, [c] pH 7.8); type: physicochemical
Description: Measurement of log P-values:
Measurement of log P values was performed according EEC directive 79/831 Annex V.A8 by HPLC (High Performance Liquid Chromatography) on reversed phase columns with the following methods:
^[a] Measurement was done at pH 2.3 with 0.1% phosphoric acid and acetonitrile as eluent with a linear gradient from 10% acetonitrile to 95% acetonitrile.
^[b] measurement of LC-MS was done at pH 2.7 with 0.1% formic acid in water and with acetonitrile (contains 0.1% formic acid) as eluent with a linear gradient from 10% acetonitrile to 95% acetonitrile.
^[c] Measurement with LC-MS was done at pH 7.8 with 0.001 molar ammonium hydrogen carbonate solution in water as eluent with a linear gradient from 10% acetonitrile to 95% acetonitrile.
Calibration was done with not branched alkan2-ones (with 3 to 16 carbon atoms) with known log P-values (measurement of log P values using retention times with linear interpolation between successive alkanones).. lambda-maX-values were determined using UV-spectra from 200 nm to 400 nm and the peak values of the chromatographic signals.

[3] = system: Haemonchus contortus; assay: Haemonchus contortus - Test (HAEMCO); type: in vivo; settings: after 5 days, 100% = all larvae killed
Description: Haemonchus contortus—Test (HAEMCO)
Solvent: dimethyl sulfoxide
To produce a suitable preparation of active compound, 10 mg of active compound are dissolved in 0.5 ml solvent, and the concentrate is diluted with “Ringer's solution” to the desired concentration.
Approximately 40 larvae of the red stomach worm (Haemonchus contortus) are transferred into a test tube containing compound solution.
After 5 days percentage of larval mortality is recorded. 100% efficacy means all larvae are killed, 0% efficacy means no larvae are killed.

[4] = method [b]: LC-MS at pH 2.7, 0.1% formic acid in water / acetonitrile
[5] = method [c]: LC-MS at pH 7.8, 0.001 molar ammonium hydrogen carbonate in water / acetonitrile
[6] = method [b]: LC-MS, pH 2.7, 0.1% formic acid in water / acetonitrile
[7] = method [c]: LC-MS, pH 7.8, 0.001 molar ammonium hydrogen carbonate / acetonitrile
[8] = method [a]: HPLC, pH 2.3, 0.1% phosphoric acid / acetonitrile

| log P [2, 4] | log P [2, 5] | logP [2, 6] | SMILES | further results |
| --- | --- | --- | --- | --- |
| 2.55^[b] | 2.53^[c]; |  | COC(c1ccccc1Cl)C(C)NC(=O)c1cccnc1Cl (centres unmarked) [Compound 143] | nematicidal activity (percentage of gall formation) [1]: 90% |
| 4.50[b] | 4.44^[c]; |  | CCOC(c1ccc(Cl)cc1Cl)C(C)NC(=O)c1ccccc1C(F)(F)F (centres unmarked) [Compound 194] | nematicidal activity (percentage of gall formation) [1]: 90% |
| 3.02^[b] | 2.95^[c]; |  | COC(c1ccc(F)cc1)C(C)NC(=O)c1ccccc1Cl (centres unmarked) [Compound 191] | nematicidal activity (percentage of gall formation) [1]: 90% |
| 4.03^[b] |  |  | COC(c1ccc(Cl)cc1Cl)C(C)N(C(=O)c1cccnc1Cl)C1CC1 (centres unmarked) [Compound 170] |  |
| 5.39^[b] |  |  | COC(c1ccc(Cl)cc1Cl)C(C)N(C(=O)c1ncc(Cl)cc1C(F)(F)F)C1CC1 (centres unmarked) [Compound 159] |  |
|  |  | 3.33^[b] | CCC(NC(=O)c1cccnc1Cl)C(OC)c1ccc(Cl)cc1Cl (centres unmarked) [Compound 89] |  |
| 4.45^[b] | 4.40^[c]; |  | CCOC(c1ccc(Cl)cc1Cl)C(C)NC(=O)c1ccccc1C(F)F (centres unmarked) [Compound 199] |  |
| 4.16^[b] |  |  | COC(CN(C(=O)c1cccnc1C(F)(F)F)C1CC1)c1ccc(Cl)cc1Cl (centres unmarked) [Compound 166] |  |
| 3.08^[b] |  |  | COC(c1ccc(Cl)cc1Cl)C(C)NC(=O)c1cc(C)nn1C (centres unmarked) [compound 124] |  |
| 4.00^[b] | 3.95^[c]; |  | COC(c1ccc(Cl)cc1Cl)C1(NC(=O)c2c(F)cccc2C(F)(F)F)CC1 (centres unmarked) [Compound 149] |  |
| 4.35^[b] | 4.39^[c]; |  | CCOC(c1ccc(Cl)cc1Cl)C(C)NC(=O)c1ccccc1Cl (centres unmarked) [Compound 201] |  |
| 3.44^[b] | 3.40^[c]; |  | COC(c1ccccc1Cl)C(C)NC(=O)c1ccccc1I (centres unmarked) [Compound 146] |  |
| 3.76^[b] | 3.71^[c]; |  | COC(c1ccc(Cl)cc1Cl)C1(NC(=O)c2ccccc2Cl)CC1 (centres unmarked) [Compound 154] |  |
| 3.44^[b] | 3.42^[c]; |  | COC(c1ccc(Cl)cc1)C(C)NC(=O)c1ccccc1I (centres unmarked) [Compound 137] |  |
| 3.97^[b] | 3.84^[c]; |  | COC(c1ccc(Cl)cc1Cl)C(C)NC(=O)c1c(C)c(C)nn1C(F)F (centres unmarked) [Compound 116] |  |
| 2.80^[b] | 2.76^[c]; |  | COC(c1ccc(F)cc1)C(C)NC(=O)c1c(F)cccc1F (centres unmarked) [Compound 185] |  |
| 3.26^[b] | 3.23^[c]; |  | COC(c1ccccc1Cl)C(C)NC(=O)c1ccccc1C (centres unmarked) [Compound 148] |  |
| 2.99^[b] | 2.95^[c]; |  | COC(c1ccc(F)cc1)C(C)NC(=O)c1ccccc1Br (centres unmarked) [Compound 186] |  |
| 1.94^[b] | 2.09^[c]; |  | COC(c1ccccc1Cl)C(C)NC(=O)c1cccnc1 (centres unmarked) [Compound 207] |  |
| 3.82^[b] | 3.76^[c]; |  | COC(c1ccc(Cl)cc1Cl)C1(NC(=O)c2ccccc2Br)CC1 (centres unmarked) [Compound 151] |  |
|  |  | 4.57^[b] | COC(c1ccc(Cl)cc1Cl)C(C)NC(=O)c1c(F)c(C)nn1C(F)F (centres unmarked) [compound 114] |  |
| 3.24^[b] | 3.19^[c]; |  | COC(c1ccc(F)cc1)C(C)NC(=O)c1c(F)cccc1C(F)(F)F (centres unmarked) [Compound 189] |  |
| 4.44^[b] |  |  | COC(c1ccc(Cl)cc1Cl)C(C)N(C(=O)c1cccnc1C(F)(F)F)C1CC1 (centres unmarked) [Compound 173] |  |
|  |  | 2.80^[b] | COC(CNC(=O)c1cccnc1C(F)F)c1ccc(Cl)cc1Cl (centres unmarked) [Compound 101] |  |
| 3.76^[b] |  |  | COC(CN(C(=O)c1cccnc1Cl)C1CC1)c1ccc(Cl)cc1Cl (centres unmarked) [Compound 167] |  |
|  |  | 3.17^[b] | COC(c1cc(Cl)cc(Cl)c1)C(C)NC(=O)c1cccnc1Cl (centres unmarked) [Compound 94] |  |
| 4.37^[b] |  |  | COC(CN(C(=O)c1nccnc1C(F)(F)F)C1CC1)c1ccc(Cl)cc1Cl (centres unmarked) [Compound 168] |  |
| 3.57^[b] | 3.53^[c]; |  | COC(c1ccc(Cl)cc1Cl)C1(NC(=O)c2c(F)cccc2F)CC1 (centres unmarked) [Compound 150] |  |
| 5.42^[b] | 5.34^[c]; |  | COC(c1ccc(Cl)cc1Cl)C(C)(C)N(C)C(=O)c1ccccc1C(F)(F)F (centres unmarked) [Compound 182] |  |

The next lines start with the molecule.

| SMILES | log P [2, 4] | log P [2, 5] | logP [2, 6] | further results |
| --- | --- | --- | --- | --- |
| COC(c1ccc(Cl)cc1)C(C)NC(=O)c1ccccc1C(F)F (centres unmarked) [Compound 136] | 3.46^[b] | 3.42^[c]; |  | activity (efficacy: larval mortality) ([3]; 20 ppm): 80% |
| COC(c1ccc(Cl)cc1Cl)C1(NC(=O)c2cccnc2Cl)CC1 (centres unmarked) [Compound 98] |  |  | 3.00^[b] | activity (efficacy: larval mortality) ([3]; 20 ppm): 80% |
| COC(c1ccc(Cl)cc1)C(C)NC(=O)c1ccsc1Br (centres unmarked) [Compound 63] |  |  | 3.68^[b] | activity (efficacy: larval mortality) ([3]; 100 ppm): 100% |
| COC(c1ccc(Cl)cc1Cl)C(C)NC(=O)c1ccnn1C(F)F (centres unmarked) [Compound 123] | 3.09^[b] |  |  | activity (efficacy: larval mortality) ([3]; 20 ppm): 100% |
| COC(CNC(=O)c1nccnc1C(F)(F)F)c1cc(Cl)cc(Cl)c1 (centres unmarked) [Compound 120] | 3.42^[b] |  |  | activity (efficacy: larval mortality) ([3]; 20 ppm): 80% |
| COC(CNC(=O)c1ccoc1I)c1ccc(Cl)cc1 (centres unmarked) [Compound 71] |  |  | 2.92^[b] | logP [2, 7]: 2.90^[c];; activity (efficacy: larval mortality) ([3]; 100 ppm): 90% |
| COC(CNC(=O)c1ccsc1Cl)c1ccc(Cl)cc1 (centres unmarked) [Compound 70] |  |  | 3.15^[b] | logP [2, 7]: 3.13^[c];; activity (efficacy: larval mortality) ([3]; 100 ppm): 100% |
| COC(c1ccc(Cl)cc1)C(C)NC(=O)c1ccoc1C (centres unmarked) [Compound 59] |  |  | 3.21^[b] | activity (efficacy: larval mortality) ([3]; 100 ppm): 90% |
| COC(c1ccc(Cl)cc1Cl)C(C)NC(=O)c1sccc1C (centres unmarked) [Compound 58] |  |  | 4.05^[b] | logP [2, 7]: 4.02^[c];; activity (efficacy: larval mortality) ([3]; 100 ppm): 80% |
| COC(c1ccc(Cl)cc1)C(C)NC(=O)c1ccccc1C (centres unmarked) [Compound 129] | 3.30^[b] | 3.20^[c]; |  | activity (efficacy: larval mortality) ([3]; 20 ppm): 80% |
| COC(c1ccc(Cl)cc1)C(C)NC(=O)c1sccc1Cl (centres unmarked) [Compound 66] |  |  | 3.83^[b] | logP [2, 7]: 3.83^[c];; activity (efficacy: larval mortality) ([3]; 20 ppm): 90% |
| COC(c1ccc(Cl)cc1Cl)C(C)NC(=O)c1cccnc1Cl (centres unmarked) [Compound 34] |  |  |  | activity (efficacy: larval mortality) ([3]; 100 ppm): 90% |
| COC(c1ccc(Cl)cc1Cl)C(C)(C)NC(=O)c1occc1Br (centres unmarked) [Compound 80] |  |  | 4.59^[b] | logP [2, 7]: 4.37^[c]; |
| CCOC(c1ccc(Cl)cc1Cl)C(C)NC(=O)c1c(C(F)F)nn(C)c1F (centres unmarked) [Compound 47] |  |  | 4.20^[b] |  |
| COC(CNC(=O)c1c(F)cccc1F)c1ccc(Cl)cc1 (centres unmarked) [Compound 72] |  |  | 2.81^[b] | logP [2, 7]: 2.79^[c]; |
| COC(c1cc(Cl)cc(Cl)c1)C(C)NC(=O)c1c(C(F)F)nn(C)c1Cl (centres unmarked) [Compound 42] |  |  | 3.92^[b] |  |
| C#CCOC(CNC(=O)c1sccc1C)c1ccc(Cl)cc1 (centres unmarked) [Compound 1] |  |  |  | logP [2, 8]: 3.18^[a]; activity (efficacy: larval mortality) ([3]; 100 ppm): 80% |
| COC(c1ccc(Cl)cc1)C(C)(C)NC(=O)c1ccccc1Cl (centres unmarked) [Compound 84] |  |  | 4.12^[b] | logP [2, 7]: 3.87^[c]; |
| Cc1ccsc1C(=O)NCC(OCC(C)C)c1ccc(Cl)cc1 (centres unmarked) [compound 7] |  |  |  | logP [2, 8]: 4.49^[a] |
| COC(c1ccc(Cl)cc1)C(C)(C)NC(=O)c1sccc1Cl (centres unmarked) [Compound 86] |  |  | 4.72^[b] | logP [2, 7]: 4.43^[c]; |
| COC(c1ccc(Cl)cc1)C(C)NC(=O)c1ccsc1 (centres unmarked) [Compound 62] |  |  | 2.84^[b] |  |
| COC(CNC(=O)c1cn(C)nc1C(F)F)c1cc(Cl)cc(Cl)c1 (centres unmarked) [Compound 25] |  |  |  | nematicidal activity (percentage of gall formation) [1]: 90% |
| COC(c1ccc(Cl)cc1Cl)C1(NC(=O)c2c(C(F)F)nn(C)c2F)CC1 (centres unmarked) [Compound 51] |  |  | 3.46^[b] |  |
| CCn1nc(C)c(C)c1C(=O)NC(C)C(OC)c1ccccc1 (centres unmarked) [Compound 55] |  |  | 2.71^[b] |  |
| COC(c1ccc(Cl)cc1)C(C)NC(=O)c1ccccc1Br (centres unmarked) [Compound 131] | 3.29^[b] | 3.30^[c]; |  | activity (efficacy: larval mortality) ([3]; 20 ppm): 90% |
| COC(c1ccc(Cl)cc1Cl)C(C)(C)NC(=O)c1ccccc1F (centres unmarked) [Compound 74] |  |  | 4.80^[b] | logP [2, 7]: 4.77^[c]; |
| COC(c1ccc(Cl)cc1)C(C)(C)NC(=O)c1sccc1I (centres unmarked) [Compound 87] |  |  | 4.77^[b] | logP [2, 7]: 4.47^[c]; |
| COC(c1ccc(Cl)cc1)C(C)NC(=O)c1snc(Cl)c1Cl (centres unmarked) [Compound 61] |  |  | 4.34^[b] |  |
